In assay [1] the test system is iRmC9 T cells (pBP1327, GFP-Fluc). Briefly: In vivo apoptotic activation in NSG mice, iRmC9 T cells (IVIS imaging, spleen FACS). Particulars: 5 mg/kg rimiducid or 10 mg/kg rapamycin i.p. Also noted: species or system mouse. The protocol: PBMCs from donor 676 were activated and co-transduced with one of the off-switches and GFP-Fluc retroviruses. Eleven days after transduction, cells were analyzed for transduction efficiency with GFP and anti-CD3/anti-CD19 antibodies (FIG. 109A). […] The CD19^+ MFI for the different T cell populations were: iC9=15.07, iRC9=14.38, and iRmC9=13.39. The cells were collected, counted, washed, and resuspended at 1×10^6 cells in 100 μl PBS for each tail vein mouse injection (Table 10) (time=−18 hr). […] IVIS imaging was performed at −14, 0, 5, 24 and 29 hours. Mice were sacrificed and spleens were collected for FACS analysis with hCD3, hCD19 and mCD45 antibodies. […] The higher percentage of remaining iRmC9 T cells observed may be due to an artifact of normalizing the no drug group.
PBMCs from donor 676 were activated and co-transduced with retroviruses encoding the pBP0220, 1310, 1327 vectors and the GFP-Fluc plasmid. (FIG. 109A) Eleven days post transduction, the cells were analyzed for CD19 and GFP transduction efficiency prior to injection into mice. (FIGS. 109B & C) NSG mice were injected i.v. with 107 T cells co-transduced with GFP-Fluc per mouse and suicide drugs were injected i.p. the next day. Bioluminescence of cells was assessed at −14, 0, 5, 24, and 29 hours post-drug administration. (FIG. 109D) At 29-h post-drug treatment, mice were euthanized and spleens were collected for flow cytometry analysis with antibodies to hCD3, […], and mCD45

The next assay deals with NF-κB. As to the kind of experiment: NF-κB SeAP reporter assay of inducible MyD88/CD40 activity. Format: cell-based. Background: Reporter assays use an easily measured gene product as a stand-in for the process of interest.
Assay [2] deals with iRmC9 T cells (pBP1327, GFP-Fluc). Briefly: Drug titration of rimiducid and rapamycin in mice bearing iRmC9 T cells. The format is in vivo, mouse. Particulars: NSG mice; rimiducid 0.00005-5 mg/kg or rapamycin 0.0001-10 mg/kg i.p.; FIGS. 110B & C. The protocol:
In this experiment, iRmC9 T cells were produced by co-transduction with pBP1327 and GFP-Fluc retroviruses from donor 584. […] Ten million iRmC9 T cells were injected IV per mouse (Table 10) (time=−14 hr). […] Vehicle groups received either PBS, 25% solutol in PBS or 5% DMA in PT. IVIS imaging was performed at −10, 0, 6, and 24 hours. Mice were sacrificed and spleens were collected for FACS analysis with hCD3, hCD19 and mCD45 antibodies. […] This observation is similar to that observed in the previous experiment (FIG. 109B) and could be due to the components of the PT.
FIG. 110. […] PBMCs from donor 584 were activated and co-transduced with retroviruses encoding the pBP1327 vector and the GFP-Fluc plasmid. (FIG. 110A) Ten days post-transduction, the cells were analyzed for CD19 and GFP transduction efficiency prior to injection into mice. (FIGS. 110B & C) NSG mice were injected i.v. with 1×10^7 T cells co-transduced with GFP-Fluc per mouse and suicide drugs were injected i.p. the next day. Bioluminescence of cells was assessed at −10, 0, 6, and 24 hours post drug administration. (FIG. 110D) At 24 h post-drug treatment, mice were euthanized and spleens were collected for flow cytometry analysis with antibodies to hCD3, […], and mCD45.

In another assay the target is T1, iRC9 (Homo sapiens, UniProt P42345+P62942).
T1 construct: expressed in transfected cells; host or cells: 293 cells
Briefly: Incucyte/casp3/7 and SEAP assays in transfected 293 cells (FIG. 107). The format is cell-based. The method, then:
FIG. 107. […] 293 cells were seeded at 300,000 cells/well in a 6-well plate and allowed to grow for 2 days. After 48 h, cells were transfected with 1 μg of experimental plasmids. Cells were harvested 48 h after transfection and diluted 2.5× their original volume.

The subject of another assay is HPAC PSCA+ tumor cells. As to the kind of experiment: T cell anti-tumor assay with HPAC-RFP cells (IncuCyte, ELISA). The format is cell-based, human. Particulars: 10 nM on day 7 of co-culture. The method, then: PBMCs from donor 920 were activated and co-transduced with GFP-Ffluc and iMC+CARζ-T (189), i9+CARζ+MC (873), or FwtFRBC9/MC.FvFv (1308)-encoding vectors. […] (A & B) Two days post-seeding, culture supernatants were analyzed for IL-2, IL-6, and IFN-γ production by ELISA. […] Numbers of HPAC-RFP and T cell-GFP at the E:T 1:2 ratio was analyzed using the basic analyzer software for the IncuCyte at day 7 (Ci) and day 8 with 0 nM suicide drug (Cii) and 10 nM suicide drug (Ciii). Similar analysis was also performed at the 1:5 E:T ratio (D). (Note: the y-axis in Ci and Di are at log-scale).
The HPAC PSCA^+ tumor cells were stably labeled with nuclear-localized RFP protein using the NucLight™ Red Lentivirus Reagent (Essen Bioscience, 4625). To set up the coculture, 4000 HPAC-RFP cells were seeded per well of 96-well plates in 100 μl of CTL medium without IL-2 for at least 4 hours to allow tumor cells to adhere. After transduction with the appropriate retrovirus and allowed to rest for at least 7 days in culture, T were seeded according to various E:T ratios to the HPAC-RFP-containing 96-well plates. […] Each plate was set up in duplicates, one plate to monitor with the IncuCyte cell imaging system and one plate for supernatant collection for ELISA assay on day 2. The plates were centrifuged for 5 min at 400×g and placed inside the IncuCyte (Essen Bioscience, Dual Color Model 4459) to monitor red fluorescence (and green fluorescence if T cells were labeled with GFP-Ffluc) every 2-3 hours for a total of 7 days at 10× objective. Image analysis was performed using the “HPAC-RFP_TcellsGFP_10×_MLD” processing definition. On day 7, HPAC-RFP cells were analyzed using the “Red Object Count (1/well)” metric. […] On day 8, Tcell-GFP cells were analyzed using the “Total Green Object Integrated Intensity” metric. Each condition was performed at least in duplicates and each well was imaged at 4 different locations.
(In general: An ELISA detects its analyte on a solid surface through an enzyme-linked reagent.)

Assay [3] relates to SLL-peptide pulsed T2 cells. Briefly: IL-2 secretion of iMC-PRAME TCR T cells with SLL-peptide pulsed T2 cells. The format is cell-based. Particulars: FIG. 117D.
The target of another assay is iC9 (pBP220) (Homo sapiens, UniProt P62942, F37V). Briefly: SRα-SEAP assay of drug specificity, iC9 switch, 293 cells. Particulars: SRα-SEAP reporter, FIG. 108A.

pEC50: −log10 of the molar value. Some results are limits rather than exact numbers.

Chain of iC9 (pBP220) (P62942 2-108 F37V): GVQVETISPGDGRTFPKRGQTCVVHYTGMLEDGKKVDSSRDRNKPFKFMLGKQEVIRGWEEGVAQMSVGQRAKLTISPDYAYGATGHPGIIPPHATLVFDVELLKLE
Chain of iC9 (pBP220) (P55211 135-416 partner limits assumed): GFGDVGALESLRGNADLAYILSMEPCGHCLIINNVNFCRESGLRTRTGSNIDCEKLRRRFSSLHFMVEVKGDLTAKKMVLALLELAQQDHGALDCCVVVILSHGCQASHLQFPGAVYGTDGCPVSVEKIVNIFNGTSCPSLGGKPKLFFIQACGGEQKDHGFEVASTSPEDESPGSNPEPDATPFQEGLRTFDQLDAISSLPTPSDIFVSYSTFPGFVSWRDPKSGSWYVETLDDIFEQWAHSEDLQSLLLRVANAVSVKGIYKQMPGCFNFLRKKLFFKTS
T1 sequence (P42345 2025-2113): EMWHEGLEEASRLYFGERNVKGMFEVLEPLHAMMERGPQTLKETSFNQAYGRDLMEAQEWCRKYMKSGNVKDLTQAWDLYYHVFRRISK
T1 sequence (P62942 2-107): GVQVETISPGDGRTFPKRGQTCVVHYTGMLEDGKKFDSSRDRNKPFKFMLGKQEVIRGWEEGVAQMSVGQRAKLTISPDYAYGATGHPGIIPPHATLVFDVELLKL
T1 sequence (P55211 135-416 partner limits assumed): as the sequence (P55211 135-416 partner limits assumed) above
Experimental for NF-κB: 293T cells were transfected with 1 μg of reporter construct NF-κB SeAP and 4 μg of the iMC+CARζ construct pBP0774 or the MC-rap-CAR construct pBP1440 using the GeneJuice protocol (Novagen). […] After 24 hours of further incubation SeAP activity was determined from cell supernatants.
HEK 293T cells (1.5×10^5) were seeded on a 100-mm tissue culture dish in 10 mL DMEM4500, supplemented with glutamine, penicillin/streptomycin and 10% fetal calf serum. After 16-30 hours incubation, cells were transfected using Novagen's GeneJuice® protocol. Briefly, for each transfection, 0.5 mL OptiMEM was pipetted into a 1.5-mL microcentrifuge tube and 15 μL GeneJuice reagent added followed by 5 sec. vortexing. Samples were rested 5 minutes to settle the GeneJuice suspension. DNA (5 μg total) was added to each tube and mixed by pipetting up and down four times. Samples were allowed to rest for 5 minutes for GeneJuice-DNA complex formation and the suspension added dropwise to one dish of 293T cells. A typical transfection contains 1 μg NFkB-SEAP (5), 4 μg iMC+CARζ(pBP0774) or 4 μg MC-Rap-CAR (pBP1440) (1).
24 hours following transfection (4.1), 293T cells were split to 96-well plates and incubated with dilutions of dimerizing drugs. Briefly, 100 μL media was added to each well of a 96-well flat-bottom plate. Drugs were diluted in tubes to a concentration 4× the top concentration in the gradient to be place on the plate. […] 100 μL from each drug-containing well was then transferred to the adjacent well and the cycle repeated 10 times to produce a serial two-fold step gradient. The last wells were untreated and serve as a control for basal reporter activity. Transfected 293 cells were then trypsinized, washed with complete media, suspended in media and 100 μL aliquoted to each well containing drug (or no drug). Cells were incubated 24 hours.
24 hours after drug stimulation, 96-well plates were wrapped to prevent evaporation and incubated at 65° C. for 2 hours to inactivate endogenous and serum phosphatases while the heat-stable SeAP reporter remains (3, 12, 14). 100 μL samples from each well were loaded into individual wells of a 96-well assay plate with black sides. Samples were incubated with 0.5 mM 4-methylumbelliferyl phosphate (4-MUP) in 0.5 M diethanolamine at pH 10.0 for 4 to 16 hours. Phosphatase activity was measured by fluorescence with excitation at 355 nm and emission at 460 nm. Data was transferred to a Microsoft Excel spreadsheet for tabulation and graphed with GraphPad Prism.

Consider `CC[C@H](C(=O)N1CCCC[C@H]1C(=O)O[C@H](CCc1ccc(OC)c(OC)c1)c1cccc(OCC(=O)NCCNC(=O)COc2cccc([C@@H](CCc3ccc(OC)c(OC)c3)OC(=O)[C@@H]3CCCCN3C(=O)[C@@H](CC)c3cc(OC)c(OC)c(OC)c3)c2)c1)c1cc(OC)c(OC)c(OC)c1` [rimiducid], for which, in assay [1] (spleen FACS, FIG. 109D), the “iRmC9 T cells remained in splenocytes (normalized to no drug group)” value is ~50%. For the same compound, the “removal of iRmC9 T cells (IVIS imaging)” value in assay [1] (NSG mice, FIGS. 109B & C) was “induced significant removal”. The pEC50 in the assay on NF-κB (MC-rap-CAR construct pBP1440, read-out: EC50 / concentration stimulating NF-κB reporter activity via MC-Rap) is < 7.30. Also, in the assay with NF-κB (iMC+CARζ construct BP774), the “concentration inducing NF-κB reporter via iMC” value is “subnanomolar”. Moreover, in assay [2], the “IVIS imaging of iRmC9 T cells in dose titration” value is “dose-dependent removal”. Also, the “rimiducid concentration required to activate iRC9” value on iRC9 is on record as > 100 nM. In addition, the “reduction of i9+CARζ+MC T cells” value in the assay with HPAC PSCA+ tumor cells is “approximately 50%”. For the same compound, the “IL-2 secretion, PRAME TCR with iMC” value in assay [3] is listed as “maximal IL-2 secretion”. The “activation of the iC9 switch” value on iC9 (pBP220) is “can activate”.

The record behind these values is US20230065562A1, “DUAL CONTROLS FOR THERAPEUTIC CELL ACTIVATION OR ELIMINATION” (Bellicum Pharmaceuticals, Inc., priority 2015, published 2023).
